Experimental data from US11420962B2, “Indene derivatives useful in treating pain and inflammation” (TARO PHARMACEUTICALS INC., priority 2018, dated 2022).

Legend:
Rat DRG = assay: Rat dorsal root ganglion excitability response (EFS, Ca2+ transients); assay type: cell-based; details: Rattus norvegicus; Table 3; electrical field stimulation, Ca5 indicator; read-out: Scoring (EC50, Rat DRG excitability)
Description: Dorsal root ganglions (DRGs) were dissected from adult rats. The tissue was processed, and cells were seeded into call culture plates (48 center wells of one quadrant in 384-well plates) and cultured for 2 days prior to Electrical field stimulation (EFS). To visualize the neuronal excitability response, intracellular Ca^+2 transients were monitored using the Ca^+2 indicator, Ca5. Ca5 was added to the cultures 1 h prior to EFS. Representative test compounds of the invention (i.e., test compounds) and reference compound, tetracaine, were added in concentration-response format encompassing six concentrations, performed in duplicate. The highest concentration tested was typically 30 μM with 1 in 3 dilutions generating the subsequent concentrations.
Effects on DRG excitability by the test compounds and standard were evaluated using four EFS protocols as disclosed in Table 2.
Experimental results were performed using two separate sets of plates using separate test compound and standard dilutions, to provide n=2. In the first set of experiments, compounds were added 24 h prior to EFS to increase the possibility to also detect more long-term compound effects. In the second set of experiments the compounds were added directly prior to EFS. Excitability response to EFS was analyzed as the average fluorescence ratio (peak/baseline) change per well. All plates were evaluated using high content imaging equipment post-EFS, imaging the Ca5 background staining to detect any possible compound-related toxic effects.
Average response by the standard compound, tetracaine, was 4.05 μM.

Mice (male, C57Bl/6) = assay: Formalin pain assay in mice; assay type: in vivo; details: Table 7; formalin 2.5%, left plantar
Description: Mice (male, C57BL/6) were placed singly in a Perspex chamber for approximately 30 min on three successive days to acclimate and thereby reduce stress-induced behaviors. On the fourth day, the experimental animals received a 25 μl injection of 2.5% formalin beneath the left plantar skin using a 29-gauge syringe. […] The total time spent on flinches/licking/biting of the hind paw was recorded by visual observation for every 5 min period/interval for total observation duration of 60 min in two phases, the early phase (0-5 min) and the late phase (15-40 min). Observers were blinded to the treatment group allocation.
For test compounds, the % protection from 0-60 min was used to assess activity. Scoring for the test compounds was as follows: “A” represents a % protection of 81 to 100%, “B” represents a % protection of 61 to 80%, “C” represents a % protection of 31 to 60% and “D” represents a % protection of 0 to 30%.

[1] = Metabolism by human liver microsomes; assay type: in vitro ADME; details: Table 8; 10 µM, in the presence of NADPH, 1 mg/mL protein
Description: Representative compounds of the invention (i.e., test compounds) and the positive control, 7-ethoxycoumarin, were prepared as stock solutions at 10 mM in DMSO and eventually diluted to 10 μM in the test plate, with an appropriate amount of acetonitrle and tris HCl buffer. Final DMSO and acetonitrile concentrations were […] and 0.5% respectively. NADPH was prepared in tris HCl buffer to a stock of 10 mM. A frozen aliquot of live microsomes was retrieved from the freezer (−80° C.) and thawed by placing the tube on wet ice. After thawing, the tubes were gently mixed and the required amount, transferred to tris HCl buffer. Test compounds or positive control were pre-incubated, separately, for 10 minutes, with liver microsomes (1 mg/mL protein), at 37° C., in 100 mM Tris HCl at pH 7.5. After preincubation the reaction was started by adding 1 mM NADPH (pre-equilibrated to […]) and the reaction allowed to proceed for 60 minutes. At 60 minutes, a 50 μL aliquot was removed and quenched with 200 uL of acetonitrile containing a mixture of internal standards (Tolbutamide (500 ng/mL) and Telmistartan (500 ng/mL)) and vortexed then centrifuged at 4000 rmp for 10 minutes (Eppendorf 5810R). The supernatant was transferred to a 96 well plate for LC-MS/MS analysis.
An LC-MS/MS method was devised for the test compounds and the control, using a AB Sciex API 4000 system coupled to a NEXAR™ UHPLC (Shimadzu) system. Analytes were separated on a Phenomenex Kinetex C18 column (50×2.1 mm, 5 μm) using a gradient that was appropriate for each compound, at a flow rate of 1 ml/minute, utilizing a mobile phase of 0.1% formic acid in MILLI-Q™ water (A) and 0.1% formic acid in acetonitrile (B). The MS instrument was operated in positive mode (ESI+)/negative (ESI−). The multiple reaction monitoring (MRM) transition for test and control compounds was used for the LC-MS/MS analysis. MRM transitions for control compound 7-ethoxycoumarinm were Quadropole 1: 191.0, Quadropole 3: 163.0, dwell time: 75 msec, using curtain gas settings of 5 V, ion-spray voltage of 5500 V, temperature of 50° C. and gas settings for nebulizer and auxiliary set to 30 and 40 psi, respectively. The interface heater was kept on. Entrance potential and collision cell exit potential were varied to tune for a specific compound.
Using a suitable LC-MS/MS method, the percentage of drug remaining at 60 minutes ([…]) was assessed by comparing the average analyte to internal standard area ratio at 60 minutes to the average analyte to internal standard area ratio at 0 time control, as a percentage, from a 5 to 10 μL sample injection.
According to the above assay, the representative compounds listed in Table 8 below were active in the Human liver microsome assay at […] and the % of drug remaining after 60 minutes (PDR60), in the presence of NADPH, was assessed by LC-MS/MS. Average PDR60 for the standard compound, 7-ethoxycoumarin was <=65% in the presence of NADPH. Scoring for the test compounds, in the presence of NADPH, was as follows: “A” represents a PDR^60 of 81 to 100%, “B” represents a PDR^60 of 61 to 80%, “C” represents a PDR^60 of 31 to 60% and “D” represents a PDR^60 of 0 to 30%.

SMILES: C=C1CC[C@H]2[C@H](CN)[C@@H]([C@@]3(C)Cc4cnn(-c5ccccc5)c4C[C@@H]3CO)CC[C@]12C [Ia-8, ((5R,6S)-5-((3aS,4R,5S,7aS)-4-(aminomethyl)-7a-methyl-1-methyleneoctahydro-1H-inden-5-yl)-5-methyl-1-phenyl-4,5,6,7-tetrahydro-1H-indazol-6-yl)methanol]
- EC50 (Rat DRG): 2 to 6 µM
- Scoring (% protection from 0-60 min) (Mice (male, C57Bl/6)): D (a % protection of 0 to 30%)
- Scoring (% of drug remaining after 60 minutes, PDR60) [1]: D (a PDR^60 of 0 to 30%)

SMILES: C[C@@]12CCC[C@H]1[C@H](CO)[C@@H]([C@@]1(C)Cc3cn[nH]c3C[C@@H]1CO)CC2 [Ia-27, ((3aS,4S,5S,7aS)-5-((5R,6S)-6-(hydroxymethyl)-5-methyl-4,5,6,7-tetrahydro-1H-indazol-5-yl)-7a-methyloctahydro-1H-inden-4-yl)methanol]
- EC50 (Rat DRG): 6 to 15 µM
- Scoring (% protection from 0-60 min) (Mice (male, C57Bl/6)): D (a % protection of 0 to 30%)

SMILES: CC[C@H]1CC[C@H]2[C@H](CN)[C@@H]([C@@]3(C)Cc4cn[nH]c4C[C@@H]3CO)CC[C@]12C [Ia-29, ((5R,6S)-5-((1S,3aS,4S,5S,7aR)-4-(aminomethyl)-1-ethyl-7a-methyloctahydro-1H-inden-5-yl)-5-methyl-4,5,6,7-tetrahydro-1H-indazol-6-yl)methanol]
- EC50 (Rat DRG): 6 to 15 µM
- Scoring (% protection from 0-60 min) (Mice (male, C57Bl/6)): D (a % protection of 0 to 30%)
- Scoring (% of drug remaining after 60 minutes, PDR60) [1]: C (a PDR^60 of 31 to 60%)

SMILES: C[C@@]12CCC[C@H]1[C@H](CN)[C@@H]([C@@]1(C)Cc3cn[nH]c3C[C@@H]1CO)CC2 [Ia-33, ((5R,6S)-5-((3aS,4S,5S,7aS)-4-(aminomethyl)-7a-methyloctahydro-1H-inden-5-yl)-5-methyl-4,5,6,7-tetrahydro-1H-indazol-6-yl)methanol]
- EC50 (Rat DRG): 6 to 15 µM
- Scoring (% protection from 0-60 min) (Mice (male, C57Bl/6)): C (a % protection of 31 to 60%)
- Scoring (% of drug remaining after 60 minutes, PDR60) [1]: B (a PDR^60 of 61 to 80%)

SMILES: C[C@H]1CC[C@H]2[C@H](CN)[C@@H]([C@@]3(C)Cc4cn[nH]c4C[C@@H]3CO)CC[C@]12C [Ia-34, ((5R,6S)-5-((1S,3aS,4S,5S,7aR)-4-(aminomethyl)-1,7a-dimethyloctahydro-1H-inden-5-yl)-5-methyl-4,5,6,7-tetrahydro-1H-indazol-6-yl)methanol]
- EC50 (Rat DRG): 6 to 15 µM
- Scoring (% protection from 0-60 min) (Mice (male, C57Bl/6)): C (a % protection of 31 to 60%)
- Scoring (% of drug remaining after 60 minutes, PDR60) [1]: B (a PDR^60 of 61 to 80%)

SMILES: C=C1CC[C@H]2[C@H](CN3CCN(C)CC3)[C@@H]([C@@]3(C)Cc4cn[nH]c4C[C@@H]3CO)CC[C@]12C [Ia-48, ((5R,6S)-5-methyl-5-((3aS,4R,5S,7aS)-7a-methyl-1-methylene-4-((4-methylpiperazin-1-yl)methyl)octahydro-1H-inden-5-yl)-4,5,6,7-tetrahydro-1H-indazol-6-yl)methanol]
- EC50 (Rat DRG): 6 to 15 µM
- Scoring (% of drug remaining after 60 minutes, PDR60) [1]: D (a PDR^60 of 0 to 30%)

SMILES: CC=C1CC[C@H]2[C@H](CN)[C@@H]([C@@]3(C)Cc4cn[nH]c4C[C@@H]3CO)CC[C@]12C [Ia-65, ((5R,6S)-5-((3aS,4R,5S,7aS)-4-(aminomethyl)-1-ethylidene-7a-methyloctahydro-1H-inden-5-yl)-5-methyl-4,5,6,7-tetrahydro-1H-indazol-6-yl)methanol]
- EC50 (Rat DRG): 6 to 15 µM
- Scoring (% of drug remaining after 60 minutes, PDR60) [1]: A (a PDR^60 of 81 to 100%)

SMILES: C=C1CC[C@H]2[C@H](CO)[C@@H]([C@@]3(C)Cc4cn[nH]c4C[C@@H]3CN3CCOCC3)CC[C@]12C [Ia-72, ((3aS,4R,5S,7aS)-7a-methyl-5-((5R,6S)-5-methyl-6-(morpholinomethyl)-4,5,6,7-tetrahydro-1H-indazol-5-yl)-1-methyleneoctahydro-1H-inden-4-yl)methanol]
- EC50 (Rat DRG): > 15 µM
- Scoring (% of drug remaining after 60 minutes, PDR60) [1]: D (a PDR^60 of 0 to 30%)

SMILES: C=C1CC[C@H]2[C@H](CN)[C@@H]([C@@]3(C)Cc4cn[nH]c4C[C@@H]3CN3CCOCC3)CC[C@]12C [Ia-76, ((3aS,4R,5S,7aS)-7a-methyl-5-((5R,6S)-5-methyl-6-(morpholinomethyl)-4,5,6,7-tetrahydro-1H-indazo1-5-yl)-1-methyleneoctahydro-1H-inden-4-yl)methanamine]
- EC50 (Rat DRG): 6 to 15 µM
- Scoring (% of drug remaining after 60 minutes, PDR60) [1]: D (a PDR^60 of 0 to 30%)

SMILES: C=C1CC[C@H]2[C@H](CO)[C@@H]([C@@]3(C)Cc4cn[nH]c4C[C@@H]3CN)CC[C@]12C [Ia-82, ((3aS,4R,5S,7aS)-5-((5R,6S)-6-(aminomethyl)-5-methyl-4,5,6,7-tetrahydro-1H-indazol-5-yl)-7a-methyl-1-methyleneoctahydro-1H-inden-4-yl)methanol]
- EC50 (Rat DRG): 6 to 15 µM
- Scoring (% of drug remaining after 60 minutes, PDR60) [1]: B (a PDR^60 of 61 to 80%)

SMILES: C=C1CC[C@H]2[C@H](CN)[C@@H]([C@@]3(C)Cc4nccnc4C[C@@H]3CO)CC[C@]12C [Ib-2, ((6S,7R)-7-((3aS,4R,5S,7aS)-4-(aminomethyl)-7a-methyl-1-methyleneoctahydro-1H-inden-5-yl)-7-methyl-5,6,7,8-tetrahydroquinoxalin-6-yl)methanol]
- EC50 (Rat DRG): > 15 µM
- Scoring (% of drug remaining after 60 minutes, PDR60) [1]: B (a PDR^60 of 61 to 80%)

SMILES: C=C1CC[C@H]2[C@H](CN)[C@@H]([C@@]3(C)Cc4cnc(N)nc4C[C@@H]3CO)CC[C@]12C [Ic-1, ((6R,7S)-2-amino-6-((3aS,4R,5S,7aS)-4-(aminomethyl)-7a-methyl-1-methyleneoctahydro-1H-inden-5-yl)-6-methyl-5,6,7,8-tetrahydroquinazolin-7-yl)methanol]
- EC50 (Rat DRG): > 15 µM
- Scoring (% of drug remaining after 60 minutes, PDR60) [1]: A (a PDR^60 of 81 to 100%)

SMILES: C=C1CC[C@H]2[C@H](CN)[C@@H]([C@@]3(C)Cc4cncnc4C[C@@H]3CO)CC[C@]12C [Ic-3, ((6R,7S)-6-((3aS,4R,5S,7aS)-4-(aminomethyl)-7a-methyl-1-methyleneoctahydro-1H-inden-5-yl)-6-methyl-5,6,7,8-tetrahydroquinazolin-7-yl)methanol]
- EC50 (Rat DRG): > 15 µM
- Scoring (% of drug remaining after 60 minutes, PDR60) [1]: A (a PDR^60 of 81 to 100%)

SMILES: C=C1CC[C@H]2[C@H](CN)[C@@H]([C@@]3(C)Cc4cc[nH]c4C[C@@H]3CO)CC[C@]12C [Id-1, ((5R,6S)-5-((3aS,4R,5S,7aS)-4-(aminomethyl)-7a-methyl-1-methyleneoctahydro-1H-inden-5-yl)-5-methyl-4,5,6,7-tetrahydro-1H-indol-6-yl)methanol]
- EC50 (Rat DRG): 6 to 15 µM
- Scoring (% of drug remaining after 60 minutes, PDR60) [1]: C (a PDR^60 of 31 to 60%)
